Reference: patent publication US6653300B2, “Pyrazole compounds useful as protein kinase inhibitors” (Vertex Pharmaceuticals Incorporated, priority 2000, dated 2003)

Tests used:
GSK-3β (AA 1-420) = biological target: T1, GSK-3β (AA 1-420) (Homo sapiens, UniProt P49841); assay: Ki determination for the inhibition of GSK-3 (coupled enzyme system); type: biochemical; conditions: 20 μM ATP, 20 nM GSK-3β, 30° C.
T1 construct: GSK-3β (AA 1-420)
Outline: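 GSK-3β (AA 1-420, 20 nM) was run in a pyruvate kinase/LDH-coupled NADH assay in 100 mM HEPES pH 7.5, 10 mM MgCl2, 25 mM NaCl, 1 mM DTT, 1.5% DMSO, with 300 μM phosphopeptide substrate. Compound (0.002–30 μM) was preincubated 10 min at 30° C, then 20 μM ATP was added.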

Aurora-2 = biological target: T2, Aurora-2 (Homo sapiens, UniProt O14965); assay: Ki determination for the inhibition of Aurora-2 (coupled enzyme assay); type: biochemical; conditions: 70 nM Aurora-2, 30° C.
T2 sequence (O14965 1-403): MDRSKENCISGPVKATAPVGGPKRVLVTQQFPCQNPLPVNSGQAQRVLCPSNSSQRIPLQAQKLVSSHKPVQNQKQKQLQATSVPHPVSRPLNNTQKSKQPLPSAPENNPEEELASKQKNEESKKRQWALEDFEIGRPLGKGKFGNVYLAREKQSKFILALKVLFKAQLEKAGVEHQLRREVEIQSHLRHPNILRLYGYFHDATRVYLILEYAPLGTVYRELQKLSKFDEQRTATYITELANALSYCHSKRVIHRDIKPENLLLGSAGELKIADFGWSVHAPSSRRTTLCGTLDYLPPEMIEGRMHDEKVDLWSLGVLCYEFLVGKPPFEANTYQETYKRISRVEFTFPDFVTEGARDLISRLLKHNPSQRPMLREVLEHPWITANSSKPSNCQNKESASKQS
Experimental: Compounds were screened in the following manner for their ability to inhibit Aurora-2 using a standard coupled enzyme assay (Fox et al (1998) Protein Sci 7, 2249).
To an assay stock buffer solution containing 0.1M HEPES 7.5, 10 mM MgCl2, 1 mM DTT, 25 mM NaCl, 2.5 mM phosphoenolpyruvate, […], 30 mg/ml pyruvate kinase, 10 mg/ml lactate dehydrogenase, […], and 800 μM peptide (LRRASLG, American Peptide, Sunnyvale, Calif.) was added a DMSO solution of a compound of the present invention to a final concentration of 30 μM. The resulting mixture was incubated at 30° C. for 10 min. The reaction was initiated by the addition of 10 μL of Aurora-2 stock solution to give a final concentration of 70 nM in the assay. The rates of reaction were obtained by monitoring absorbance at 340 nm over a 5 minute read time at 30° C. using a BioRad Ultramark plate reader (Hercules, Calif.). The Ki values were determined from the rate data as a function of inhibitor concentration.

T1 sequence (P49841 whole entry, the tested form may be a part): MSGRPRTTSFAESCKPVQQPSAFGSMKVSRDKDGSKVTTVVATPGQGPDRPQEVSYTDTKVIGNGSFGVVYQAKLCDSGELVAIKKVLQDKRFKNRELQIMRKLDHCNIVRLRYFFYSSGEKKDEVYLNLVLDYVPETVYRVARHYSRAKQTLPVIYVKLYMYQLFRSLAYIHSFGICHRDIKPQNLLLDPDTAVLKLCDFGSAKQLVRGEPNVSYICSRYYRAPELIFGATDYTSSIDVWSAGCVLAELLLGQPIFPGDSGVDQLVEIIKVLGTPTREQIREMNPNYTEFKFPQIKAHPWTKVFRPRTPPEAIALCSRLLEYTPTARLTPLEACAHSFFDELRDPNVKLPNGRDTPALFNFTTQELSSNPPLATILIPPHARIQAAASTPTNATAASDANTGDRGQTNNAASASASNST

Row | Compound | Ki (GSK-3β (AA 1-420)) [nM] | melting point | Ki (Aurora-2) [nM]
1 | Cc1cc(Nc2nc(Sc3ccc(Br)cc3)nc3ccccc23)n[nH]1 [IIa-46, [2-(4-Bromophenylsulfanyl)-quinazolin-4-yl]-(5-methyl-2H-pyrazol-3-yl)-amine] | < 100 | > 300 °C | < 100
2 | Cc1cc(Nc2nc(Sc3ccc(NS(C)(=O)=O)cc3)nc3c(O)cccc23)n[nH]1 [IIa-69, [8-Hydroxy-2-(4-methylsulfonylamino-phenylsulfanyl)-quinazolin-4-yl]-(5-methyl-2H-pyrazol-3-yl)-amine] | 100 to 1000 | 291 to 293 °C | < 100
3 | CC(=O)Nc1ccc(Sc2nc(Nc3cc(C)n[nH]3)cc(-c3ccc(OCCCN(C)C)cc3)n2)cc1 [IIIa-43, {2-(4-Acetamido-phenyl-sulfanyl)-6-[4-(3-dimethylamino-propoxy)-phenyl]-pyrimidin-4-yl}-(5-methyl-2H-pyrazol-3-yl)-amine] | 1000 to 7000 | 219 to 222 °C | 1000 to 10000
4 | COc1cccc2c(Nc3cc(C4CC4)[nH]n3)nc(Sc3ccc(NC(C)=O)cc3)nc12 [IIa-72, [2-(4-Acetamido-phenylsulfanyl)-8-methoxy-quinazolin-4-yl]-(5-cyclopropyl-2H-pyrazol-3-yl)-amine] | 1000 to 7000 | 265 to 268 °C | < 100
5 | O=C(O)Cc1ccc(Nc2nc(Nc3cc(C4CC4)[nH]n3)c3ccccc3n2)cc1 [IIc-36, [2-(4-Carboxymethylphenylamino)-quinazolin-4-yl]-(5-cyclopropyl-2H-pyrazol-3-yl)-amine] | < 100 | > 210 °C (dec.) | < 100
6 | Cc1cc(Nc2nc(NCc3ccccc3)nc3ccccc23)n[nH]1 [IIc-5, (2-Benzylamino-quinazolin-4-yl)-(5-methyl-2H-pyrazol-3-yl)-amine] | 100 to 1000 | 225 to 227 °C | < 100
7 | c1ccc2[nH]c(Sc3nc(Nc4cc(C5CC5)[nH]n4)c4ccccc4n3)nc2c1 [IIa-34, [2-(Benzimidazol-2-ylsulfanyl)-quinazolin-4-yl]-(5-cyclopropyl-2H-pyrazol-3-yl)-amine] | 100 to 1000 | 201 to 203 °C | < 100
8 | Cc1cc(Nc2nc(Nc3ccc(Br)cc3)nc3ccccc23)n[nH]1 [IIc-67, [2-(4-Bromophenylamino)-quinazolin-4-yl]-(5-methyl-2H-pyrazol-3-yl)-amine] | < 100 | 290 to 293 °C | < 100
9 | COc1cccc2c(Nc3cc(C)[nH]n3)nc(Sc3ccc(NS(C)(=O)=O)cc3)nc12 [IIa-66, [8-Methoxy-2-(4-methylsulfonylamino-phenylsulfanyl)-quinazolin-4-yl]-(5-methyl-2H-pyrazol-3-yl)-amine] | 100 to 1000 | 275 to 277 °C | < 100
10 | CCCc1ccc(Nc2nc(Nc3cc(C4CC4)n[nH]3)c3ccccc3n2)cc1 [IIc-26, (5-Cyclopropyl-2H-pyrazol-3-yl)-[2-(4-propylphenylamino)-quinazolin-4-yl]-amine] | 100 to 1000 | 255 to 256 °C | < 100
11 | COC(=O)c1cccc(Sc2nc(Nc3cc(C4CC4)[nH]n3)c3ccccc3n2)c1 [IIa-22, (5-Cyclopropyl-2H-pyrazol-3-yl)-[2-(3-methoxycarbonylphenylsulfanyl)-quinazolin-4-yl]-amine] | < 100 | 224 to 225 °C | < 100
12 | CC(=O)Nc1ccc(Nc2nc(Nc3cc(C)[nH]n3)c3ccccc3n2)cc1C#N [IIc-57, [2-(4-Acetamido-3-cyanophenylamino)-quinazolin-4-yl]-(5-methyl-2H-pyrazol-3-yl)-amine] | 100 to 1000 | 294 to 296 °C | < 100
13 | CC(=O)Nc1ccc(Nc2nc(Nc3cc(C)[nH]n3)c3ccccc3n2)cc1 [IIc-59, [2-(4-Acetamidophenylamino)-quinazolin-4-yl]-(5-methyl-2H-pyrazol-3-yl)-amine] | 100 to 1000 | 253 to 256 °C | < 100
